These results are taken from US12251447B2, “Combined formulation comprising four linked cytotoxic T lymphocyte (CTL) epitopes and a PD-1 pathway inhibitor and methods of use thereof to treat cancer” (Taiho Pharmaceutical Co., Ltd., priority 2018, dated 2025).

Common to all, as to format: in vivo, mouse
A short description of series [1]: Example 6: rate of change in body weight. Particulars: 18 days after cell transplantation vs Day 0. The method, then: (§1) Body weight was measured using an electronic balance for animals, and a rate of change in body weight (BWC) was calculated from the body weight measured on Day 0 (the day of grouping, BW0) and the body weight on 18 days after cell transplantation (BW) according to the following formula. Rate of change in body weight BWC (%)=(BW−BW0)/BW0×100
9-week-old B2 m^tm2(HLA-A24/H-2Db/B2M)Tai mice were randomly assigned to groups each involving 15 animals. The day of grouping was defined as Day 0.
This study was conducted in the same way as in Example 4 except that TPV07 or TPV08 was used instead of TPV06 as a peptide having 4 linked epitopes. TPV07 and TPV08, as in TPV06, were each prepared into 6 mg/mL using distilled water (Otsuka Pharmaceutical Factory Inc.) and then mixed with the equivalent amount of Montanide™ ISA 51 VG (SEPPIC) to prepare an emulsion, which was administered.

The nature of series [2]: Example 4: rate of change in body weight. Particulars: body weight 18 days after cell transplantation vs Day 0. As to the method:
8-week-old B2m^tm2(HLA-A24/H-2Db/B2M)Tai mice were randomly assigned to groups each involving 15 animals. The day of grouping was defined as Day 0. A 6 mg/mL peptide solution was prepared by dissolving a peptide having 4 linked epitopes TPV06 in distilled water (Otsuka Pharmaceutical Factory Inc.), and filled into the B Braun Injekt syringe (B. Braun Melsungen AG). After the equivalent amount of Montanide™ ISA 51 VG (SEPPIC) was filled into another syringe, these syringes were connected to each other via a connector, and the peptide solution was thoroughly mixed with Montanide™ ISA 51 VG to prepare an emulsion. Also, an emulsion of distilled water mixed with the equivalent amount of Montanide™ ISA 51 VG was prepared as a vehicle control. Each of these emulsions was subcutaneously administered weekly in amounts of 100 μL each in the vicinity of base of tail of each B2m^tm2(HLA-A24/H-2Db/B2M)Tai mouse, and administrations were carried out three times in total (Days 0, 7, and 14). […]
Body weight was measured using an electronic balance for animals, and a rate of change in body weight (BWC) was calculated from the body weight measured on Day 0 (the day of grouping, BW0) and the body weight on 18 days after cell transplantation (BW) according to the following formula. […]

Series [3] is described as follows: Example 5: rate of change in body weight. Particulars: 18 days after cell transplantation vs Day 0. As to the method:
as §1
9-week-old B2m^tm2(HLA-A24/H-2Db/B2M)Tai mice were randomly assigned to groups each involving 15 animals. The day of grouping was defined as Day 0.
This study was conducted in the same way as in Example 4 except that an anti-mouse PD-L1 antibody was used instead of the anti-mouse PD-1 antibody. GoInVivo™ Purified anti-mouse CD274 (B7-H1, PD-L1) (Clone: 10F.9G2, BioLegend, Inc.) was prepared as an anti-mouse PD-L1 antibody (anti-mPD-L1 Ab) into 1 mg/mL using D-PBS (FUJIFILM Wako Pure Chemical Corp.) immediately before administration. One week after final administration of the emulsions (Day 21), the anti-mouse PD-L1 antibody was intraperitoneally administered at 200 μg/body.

Ends that are not written are not given here.

“DYSARWNEIRRQIRPIFSNRRRVYDYNCHVDLRRASLDSDPWV [TPV07, PEP5-RR-PEP9-RR-PEP6-RR-PEP2]”: the “BWC (%) change in body weight” value in series [1] was found to be 18.9%. Still for that read-out and setting: for “DYSARWNEIRRQIRPIFSNRRRVYDYNCHVDLRRILEQSGEWWK [TPV08, PEP5-RR-PEP9-RR-PEP6-RR-PEP10]” the value was 21.7%. Turning to “DYSARWNEIRRQIRPIFSNRRRVYDYNCHVDLRRLLQAEAPRL [TPV06, PEP5-RR-PEP9-RR-PEP6-RR-PEP4]”, in series [2], the “BWC (%) rate of change in body weight” value was determined as 27.0%. In series [3], the “BWC (%) change in body weight” value turned out to be 21.9%.
